This is an account of results in patent US9808423B2, “Preparation of suspension aerosol formulations” (Generics [UK] Limited, priority 2004, dated 2017).

The data set in a line: Sympatec laser diffraction particle size of micronized medicament. It counts as physicochemical. To be noted: Sympatec laser diffraction instrument; micronized starting material of Example 10. The protocol: A stock solution of 16.0 g of ethanol USP and 0.0053 g of oleic acid was prepared. Into each of three 14-mL fluoropolymer (FEP-PES) coated aluminum canisters was added 7 mg of micronized salmeterol xinafoate, having a volume mean diameter (X50) of 1.6 μm as measured using a Sympatec laser diffraction instrument. To each canister was then added 10.0 g of HFA-134a, at about −70° C., and approximately 0.20 g of the stock solution. A 50-μL metering valve was crimp sealed to each canister. Each canister was sonicated for 1.5 minutes to promote mixing of the formulation and deaggregation of the medicament particles.

Take `OCc1cc(C(O)CNCCCCCCOCCCCc2ccccc2)ccc1O` (stereo not shown) [micronized salmeterol xinafoate, salmeterol xinafoate]: the “volume mean diameter (X50)” value was 1.6 μm.
